Experimental data published in paper PMC12800093 (Nature Communications, 2025).
Where a SMILES comes first, the peptide text is derived from it. Where no end group is shown, it is not given here. [ ]: non-standard residue; d: D form.

What was measured:
[1] = test system: proliferating Mtb (H37Rv) cultures
[2] = test system: nutrient-starved NRP Mtb H37Rv; experiment: Kill curves with nutrient-starved non-replicating Mtb; type: cell-based, M. tuberculosis
[3] = test system: hypoxia-induced NRP Mtb H37Ra; type: cell-based, M. tuberculosis
[4] = Human serum proteolytic stability; type: in vitro ADME; settings: observed during serum proteolysis experiments, 25% v/v human serum
[5] = test system: Mtb-secreted proteases (mc^2 6230 supernatant); settings: proteolytic Mtb (mc^2 6230) supernatant, two weeks (0, 1, 7, 14 d), HPLC; n = 3 technical replicates

## NNC(=O)c1ccncc1 [INH, isoniazid, reference compound]
[1]
  incubation time at which regrowth of treated Mtb cultures was permitted: 3 days
  reduction in the first week of exposure: ~ 2 log
[2]
  activity under nutrient starvation conditions: inactive
[3]
  activity under hypoxic conditions: inactive

## CC(C)[C@@H](NC(=O)[C@H](N)Cc1c[nH]c2ccccc12)C(=O)N[C@@H](C(=O)N[C@H](Cc1c[nH]c2ccccc12)C(=O)N[C@H](Cc1c[nH]cn1)C(=O)N[C@H](CCCNC(=N)N)C(=O)N[C@H](CCCNC(=N)N)C(=O)N[C@H](Cc1c[nH]c2ccccc12)C(=O)N[C@H](Cc1c[nH]c2ccccc12)C(=O)N[C@H](Cc1c[nH]cn1)C(=O)N[C@H](Cc1c[nH]c2ccccc12)C(=O)N[C@H](CCCNC(=N)N)C(=O)N[C@H](CCCCN)C(N)=O)C(C)C [MAD1-RI] (H-[dW][dV][dV][dW][dH][dR][dR][dW][dW][dH][dW][dR][dK]-NH2)
[4]
  binding to human serum proteins: significant binding
[5]
  Stability in the presence of Mtb-secreted proteases: generally remained stable up to two weeks

## KRWHWWRRHWVVW-NH2 [MAD1]
[5]
  Stability in the presence of Mtb-secreted proteases: completely proteolyzed after 14 days
